# Literature values in patent US20050281896A1, “Nutritional composition for increasing creatine uptake in skeletal muscle” (priority 2004, published 2005).
# Key:
# [1] = target: angiotensin converting enzyme (ACE) (Homo sapiens, UniProt P12821)
# [2] = in vivo
# Sequence of angiotensin converting enzyme (ACE) (P12821 30-1306, species assumed): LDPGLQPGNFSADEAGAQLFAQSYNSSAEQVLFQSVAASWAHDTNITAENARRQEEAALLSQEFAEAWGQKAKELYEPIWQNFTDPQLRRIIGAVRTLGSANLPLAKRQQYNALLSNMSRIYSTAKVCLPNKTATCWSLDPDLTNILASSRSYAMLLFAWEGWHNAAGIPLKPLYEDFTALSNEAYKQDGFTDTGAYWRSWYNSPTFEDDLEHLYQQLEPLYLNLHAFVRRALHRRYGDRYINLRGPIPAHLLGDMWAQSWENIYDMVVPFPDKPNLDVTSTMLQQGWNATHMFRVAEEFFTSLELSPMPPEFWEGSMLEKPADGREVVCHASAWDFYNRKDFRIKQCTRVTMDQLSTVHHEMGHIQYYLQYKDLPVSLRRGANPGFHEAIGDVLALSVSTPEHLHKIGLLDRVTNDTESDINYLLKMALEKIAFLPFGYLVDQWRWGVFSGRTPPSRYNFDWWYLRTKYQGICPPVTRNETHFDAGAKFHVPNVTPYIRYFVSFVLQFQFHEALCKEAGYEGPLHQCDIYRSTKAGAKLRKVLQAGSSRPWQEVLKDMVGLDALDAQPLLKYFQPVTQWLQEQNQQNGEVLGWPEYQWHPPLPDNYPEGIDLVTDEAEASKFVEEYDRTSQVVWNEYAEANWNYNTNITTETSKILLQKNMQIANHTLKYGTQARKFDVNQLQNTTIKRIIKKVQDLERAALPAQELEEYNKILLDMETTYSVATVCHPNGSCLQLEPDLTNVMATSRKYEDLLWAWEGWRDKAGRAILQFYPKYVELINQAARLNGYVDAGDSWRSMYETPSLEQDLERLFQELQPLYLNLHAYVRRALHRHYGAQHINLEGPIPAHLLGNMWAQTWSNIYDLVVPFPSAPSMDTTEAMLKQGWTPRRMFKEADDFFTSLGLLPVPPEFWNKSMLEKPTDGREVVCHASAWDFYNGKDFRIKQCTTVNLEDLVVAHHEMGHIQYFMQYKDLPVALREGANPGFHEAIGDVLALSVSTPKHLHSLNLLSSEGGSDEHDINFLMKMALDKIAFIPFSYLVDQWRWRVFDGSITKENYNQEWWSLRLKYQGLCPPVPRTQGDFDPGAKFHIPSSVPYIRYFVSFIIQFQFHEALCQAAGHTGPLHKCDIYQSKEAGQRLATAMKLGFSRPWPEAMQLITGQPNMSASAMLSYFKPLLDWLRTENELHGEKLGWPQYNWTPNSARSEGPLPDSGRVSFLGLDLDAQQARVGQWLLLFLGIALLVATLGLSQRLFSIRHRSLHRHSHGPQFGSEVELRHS
effect on angiotensin converting enzyme (ACE) [1],Compound,increase of the metabolic clearance rate of glucose (diabetics) [%],body's utilization of blood sugar (type II diabetics),effect on blood pressure [2]
,"O=C(O)CCCC[C@@H]1CCSS1 (stereo in doubt) [alpha lipoic acid, 1,2-dithiolane-3-pentanoic acid]",50,significantly increase,
inhibition,"O=C(/C=C/c1ccc(O)c(O)c1)c1ccc(O)cc1O [butein, 3,4,2′,4′-tetrahydroxychalcone]",,,hypotensive effects
